US9381208B2, “Structure and use of 5′ phosphate oligonucleotides” (Rheinische Friedrich-Wilhelms-Universität, priority 2006, dated 2016)
{ppp} = triphosphate group

System: human primary monocytes
Assay: IFN-α production in human primary monocytes transfected with RNA (ELISA)
Assay type: cell-based
Settings: for IFN-α-inducing activity conferred by the 5′ 4-nucleotide sequence: adenosine-initiated in vitro transcribed RNA oligonucleotides, FIG. 13; for IFN-α induction (*100%) mean: monocytes from three donors, 36 hours after transfection, normalized to the mean induction level of all oligonucleotides (=100%); for IFN-α production in monocytes: 200 ng RNA transfected, ELISA

Substance	IFN-α-inducing activity conferred by the 5′ 4-nucleotide sequence	IFN-α induction (*100%) mean	also measured
5′-pppGGGGCUGACCCUGAAGUUCAUCUUCCC-3′ [27-mer]	–	–	IFN-α induction level (24 hours after stimulation, five donors, mean±SEM): 5876 ± 1785 pg/mL
augcggggac acacacacac acacacacac (AUGCGGGGACACACACACACACACACACAC; RNA, 5' {ppp}, backbone not given here) [SEQ ID No. 159]	highest IFN-α-inducing activity	1.23 *100%	–
aguuggggac acacacacac acacacacac (AGUUGGGGACACACACACACACACACACAC; RNA, 5' {ppp}, backbone not given here) [SEQ ID No. 168]	highest IFN-α-inducing activity	1.32 *100%	–
agauggggac acacacacac acacacacac (AGAUGGGGACACACACACACACACACACAC; RNA, 5' {ppp}, backbone not given here) [SEQ ID No. 113]	–	0.48 *100%	–
agacggggac acacacacac acacacacac (AGACGGGGACACACACACACACACACACAC; RNA, 5' {ppp}, backbone not given here) [SEQ ID No. 116]	–	0.62 *100%	–
auucggggac acacacacac acacacacac (AUUCGGGGACACACACACACACACACACAC; RNA, 5' {ppp}, backbone not given here) [SEQ ID No. 144]	highest IFN-α-inducing activity	1.03 *100%	–
aaauggggac acacacacac acacacacac (AAAUGGGGACACACACACACACACACACAC; RNA, 5' {ppp}, backbone not given here) [SEQ ID No. 146]	highest IFN-α-inducing activity	1.04 *100%	–
aaucggggac acacacacac acacacacac (AAUCGGGGACACACACACACACACACACAC; RNA, 5' {ppp}, backbone not given here) [SEQ ID No. 132]	–	0.94 *100%	–
aagaggggac acacacacac acacacacac (AAGAGGGGACACACACACACACACACACAC; RNA, 5' {ppp}, backbone not given here) [SEQ ID No. 134]	–	0.95 *100%	–
agguggggac acacacacac acacacacac (AGGUGGGGACACACACACACACACACACAC; RNA, 5' {ppp}, backbone not given here) [SEQ ID No. 155]	highest IFN-α-inducing activity	1.18 *100%	–
acugggggac acacacacac acacacacac (ACUGGGGGACACACACACACACACACACAC; RNA, 5' {ppp}, backbone not given here) [SEQ ID No. 152]	highest IFN-α-inducing activity	1.14 *100%	–
5′-PPPGGGAGACAGGAAAAAAAAAAAAAAAAAAAAA-3′ [tri-poly A]	–	–	IFN-α production in monocytes (24 hours): equally potent
aaccggggac acacacacac acacacacac (AACCGGGGACACACACACACACACACACAC; RNA, 5' {ppp}, backbone not given here) [SEQ ID No. 156]	highest IFN-α-inducing activity	1.20 *100%	–
accuggggac acacacacac acacacacac (ACCUGGGGACACACACACACACACACACAC; RNA, 5' {ppp}, backbone not given here) [SEQ ID No. 124]	–	0.76 *100%	–
agccggggac acacacacac acacacacac (AGCCGGGGACACACACACACACACACACAC; RNA, 5' {ppp}, backbone not given here) [SEQ ID No. 128]	–	0.87 *100%	–
aucuggggac acacacacac acacacacac (AUCUGGGGACACACACACACACACACACAC; RNA, 5' {ppp}, backbone not given here) [SEQ ID No. 133]	–	0.94 *100%	–
agggggggac acacacacac acacacacac (AGGGGGGGACACACACACACACACACACAC; RNA, 5' {ppp}, backbone not given here) [SEQ ID No. 111]	–	0.22 *100%	–
acauggggac acacacacac acacacacac (ACAUGGGGACACACACACACACACACACAC; RNA, 5' {ppp}, backbone not given here) [SEQ ID No. 148]	highest IFN-α-inducing activity	1.11 *100%	–
agugggggac acacacacac acacacacac (AGUGGGGGACACACACACACACACACACAC; RNA, 5' {ppp}, backbone not given here) [SEQ ID No. 143]	highest IFN-α-inducing activity	1.01 *100%	–
acguggggac acacacacac acacacacac (ACGUGGGGACACACACACACACACACACAC; RNA, 5' {ppp}, backbone not given here) [SEQ ID No. 125]	–	0.77 *100%	–
auuaggggac acacacacac acacacacac (AUUAGGGGACACACACACACACACACACAC; RNA, 5' {ppp}, backbone not given here) [SEQ ID No. 171]	highest IFN-α-inducing activity	1.36 *100%	–

Substance	IFN-α-inducing activity conferred by the 5′ 4-nucleotide sequence	IFN-α induction (*100%) mean	also measured
acucggggac acacacacac acacacacac (ACUCGGGGACACACACACACACACACACAC; RNA, 5' {ppp}, backbone not given here) [SEQ ID No. 137]	–	0.98 *100%	–
auugggggac acacacacac acacacacac (AUUGGGGGACACACACACACACACACACAC; RNA, 5' {ppp}, backbone not given here) [SEQ ID No. 167]	highest IFN-α-inducing activity	1.31 *100%	–
acuuggggac acacacacac acacacacac (ACUUGGGGACACACACACACACACACACAC; RNA, 5' {ppp}, backbone not given here) [SEQ ID No. 118]	–	0.66 *100%	–
agcuggggac acacacacac acacacacac (AGCUGGGGACACACACACACACACACACAC; RNA, 5' {ppp}, backbone not given here) [SEQ ID No. 120]	–	0.69 *100%	–
5′-pppAGGGAAGCGGGCAUGCGGCCAGCCAUAGCCGAUCA-3′ [AΦ6.5-35 n]	–	–	IFN-α production in monocytes (24 hours): clear superiority
aaacggggac acacacacac acacacacac (AAACGGGGACACACACACACACACACACAC; RNA, 5' {ppp}, backbone not given here) [SEQ ID No. 154]	highest IFN-α-inducing activity	1.15 *100%	–
agagggggac acacacacac acacacacac (AGAGGGGGACACACACACACACACACACAC; RNA, 5' {ppp}, backbone not given here) [SEQ ID No. 114]	–	0.50 *100%	–
aaugggggac acacacacac acacacacac (AAUGGGGGACACACACACACACACACACAC; RNA, 5' {ppp}, backbone not given here) [SEQ ID No. 136]	–	0.96 *100%	–
aaaaggggac acacacacac acacacacac (AAAAGGGGACACACACACACACACACACAC; RNA, 5' {ppp}, backbone not given here) [SEQ ID No. 121]	–	0.73 *100%	–
aggcggggac acacacacac acacacacac (AGGCGGGGACACACACACACACACACACAC; RNA, 5' {ppp}, backbone not given here) [SEQ ID No. 131]	–	0.91 *100%	–
agcgggggac acacacacac acacacacac (AGCGGGGGACACACACACACACACACACAC; RNA, 5' {ppp}, backbone not given here) [SEQ ID No. 115]	–	0.52 *100%	–
5′-pppGCUUAACCUGUCCUUCAAU-3′ [RNA9.2s-1G]	–	–	reduction in IFN-α induction compared with RNA9.2s-0A (monocytes, 200 ng, 24 hours): approximately 25%
aggaggggac acacacacac acacacacac (AGGAGGGGACACACACACACACACACACAC; RNA, 5' {ppp}, backbone not given here) [SEQ ID No. 161]	highest IFN-α-inducing activity	1.27 *100%	–
acgaggggac acacacacac acacacacac (ACGAGGGGACACACACACACACACACACAC; RNA, 5' {ppp}, backbone not given here) [SEQ ID No. 151]	highest IFN-α-inducing activity	1.14 *100%	–
Lipopolysaccharide [LPS, reference compound]	–	–	IFN-α production in monocytes (24 hours): did not contribute to IFN-α production
5′-PPPGGG AGACAGGUUUUUUUUUUUUUUUUUUUUU-3′ (GGGAGACAGGUUUUUUUUUUUUUUUUUUUUU; RNA, 5' {ppp}, backbone not given here) [tri-poly U]	–	–	IFN-α production in monocytes (24 hours): equally potent
auccggggac acacacacac acacacacac (AUCCGGGGACACACACACACACACACACAC; RNA, 5' {ppp}, backbone not given here) [SEQ ID No. 141]	highest IFN-α-inducing activity	1.01 *100%	–
auagggggac acacacacac acacacacac (AUAGGGGGACACACACACACACACACACAC; RNA, 5' {ppp}, backbone not given here) [SEQ ID No. 123]	–	0.76 *100%	–
augaggggac acacacacac acacacacac (AUGAGGGGACACACACACACACACACACAC; RNA, 5' {ppp}, backbone not given here) [SEQ ID No. 169]	highest IFN-α-inducing activity	1.32 *100%	–
auggggggac acacacacac acacacacac (AUGGGGGGACACACACACACACACACACAC; RNA, 5' {ppp}, backbone not given here) [SEQ ID No. 172]	highest IFN-α-inducing activity	1.38 *100%	–
